Laboratory results taken from patent US20240270731A1, “[…]” (ALEBUND PHARMACEUTICALS (HONG KONG) LIMITED, priority 2021, published 2024).

What was measured:
[1] = test system: uninephrectomied db/db mice; assay: Diabetic nephropathy pharmacodynamic model (uninephrectomied db/db mice)
Procedure: Housing temperature was maintained at 22-26° C. and humidity at 40%-60%. Mice were allowed to access food and water ad libitum. […] Buprenorphine was applied after surgery.
Two weeks after surgery, db/db mice were randomly assigned into 5 groups. Wild type mice were used for the control animals. […] Compounds were orally administrated once per day for 10 weeks.
At the 5th and 9th week after compound administration, mice were placed in metabolic cages for urine collection. Albumin level was measured for 24 hr albumin excretion calculation. At the 10th week after treatment, the animals were sacrificed for kidney dissection. The kidney was fixed in 10% neutral buffed formalin, then paraffin-embedded for histopathological analysis. Glomerulosclerosis was assessed by evaluating glomerular basement membrane, mesangial expansion, nodular sclerosis and glomerulosclerosis.
Graphpad 8.0 software was used for statistical analysis. The difference between the values were analyzed with one-way ANOVA. The difference between histopathological score was analyzed with Kruskal-Wallis nonparameter test.

[2] = test system: db/db type 2 diabetes model; assay: Pharmacodynamics study on the db/db type 2 diabetes model
From the text: 45 db/db mice were evenly divided into 5 groups before the initiation of treatment based on the body weights, serum triglyceride (TG) levels, and random blood glucose levels.
All animals were weighed daily before each dosing and treated daily for 14 consecutive days.
All the data was imported into an Excel file and presented as Mean±SEM. Graphpad Prism 7.0 software was used for data statistical analysis by One-way or Two-way ANOVA, with P<0.05 as the criterion of significant differences.

[3] = test system: rat model of hyperlipidemia induced by high cholesterol diet; assay: Rat model of hyperlipidemia induced by high cholesterol diet (serum TG, NEFA); format: in vivo, Sprague-Dawley rats
From the text: On the day before the start of the administration (Day 0), the animals were divided into 7 groups based on body weights and serum indicators and were continually fed with the high-cholesterol diet. The treatment groups were orally dosed with either compound or vehicle while continuing the high-cholesterol diet for a total of 1 week. The animals were weighed daily before the treatment, and the compounds were given at 9:00-9:30 in the morning based on the body weight of the day.

[4] = test system: rat model of unilateral ureteral obstruction; assay: Renal injury in rat model of unilateral ureteral obstruction; details: 0.2 mg/kg oral daily, 14 treatment days
Procedure: Housing temperature was maintained at 20-26° C. and humidity at 40%-60%. Rats were fed with a standard chow and allowed to access food and water ad libitum.
The formulation was prepared twice a week.
Vehicle or compounds were administrated by orally gavage daily. Unilateral ureteral obstruction was performed on the second day of compound treatment. Animals in model group, reference group and compound group underwent urethral ligation under isoflurane anesthesia one hour after receiving compound administration. A flank incision was cut to expose the left ureter, and a 4-0 surgical suture was used to perform two-point ligation to achieve urethral obstruction. Ureter was cut between the two ligation points. Animals in the control group were subjected to the same surgical treatment except the ligation and cut.
Rats were sacrificed after 14 days' compound treatment. The obstructed kidney was weighed and collected for histology. The tissue samples were fixed with formalin, and then paraffin embedded. The embedded tissue was sectioned and stained with hematoxylin & eosin and Masson trichrome to assess kidney structure and fibrosis.
The multiple comparison was analyzed with the Kruskal-Wallis non-parameter test. The Dunn's test was used to compare the difference to the model group.

In the case of `CO[C@@H](Cc1ccc(OCCc2nc(-c3ccccc3)oc2C)c2ccsc12)C(=O)O` (single isomer, unassigned) [Compound 2], the “24-hour urinary albumin compared with vehicle” value ([1]; 5th and 9th weeks after compound administration, 0.1, 0.3, 1 mg/kg oral once per day) is reported as “significantly decreased”, the “Renal tubular injury (histopathology)” value ([1]; all dosage levels (0.1, 0.3, 1 mg/kg), 10 weeks) is reported as “improved the tubular injury at some extend” and the “Glomerulosclerosis histopathological score and glomerular volume” value ([1]; high dose (1 mg/kg), 10 weeks) is reported as “statistically significantly reduced”. The “OGTT blood glucose compared with the vehicle group” value ([2]; 0.05 mg/kg, all time points) was “did not reach statistical significance”, the “Serum TG levels compared with the vehicle group” value ([2]; Day 6 and Day 12, Aleglitazar 0.2 mg/kg, Compound 2 at different dosages) was “significantly lower” and the “Effect on lowering blood glucose compared with Aleglitazar” value ([2]; random blood glucose, Day 7 and Day 14) was “slightly weaker effect”. For the same compound, the “OGTT AUC0-120min compared with Aleglitazar” value ([2]; same dose level (0.2 mg/kg)) was “higher”, the “Serum NEFA compared with Aleglitazar” value ([3]; 0.2 mg/kg, T-test, P<0.05) was “significantly reduce” and the “Serum TG compared with Aleglitazar” value ([3]; 0.2 mg/kg, T-test, P<0.05) was “significantly reduce”. For the same compound, the “Serum TG and NEFA levels compared with the vehicle group” value ([3]; Day 8, both 0.2 mg/kg and 0.6 mg/kg) was “significantly reduce” and the “Total score of renal focal lesions (infract, tubular dilation, tubular obstruction, fibrosis, necrosis) compared with model group” value [4] was “significantly improved”.
